Consider 50 molecules from US9732075B2, “Benzimidazole-proline derivatives” (IDORSIA PHARMACEUTICALS LTD, priority 2012, dated 2017).

For one experiment, the target named is human orexin-2 receptor (Homo sapiens (Human), UniProt O43614). The experiment in a line: In vitro assay: intracellular calcium measurements (FLIPR), antagonistic activity. The class given is cell-based. To be noted: CHO cells expressing human orexin-2 receptor, orexin-A agonist, geometric mean, read-out: IC50 Ox2. In outline: (§1)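 Orexin-A-evoked calcium rise (3 nM final, roughly EC70) was recorded with fluo-4 in recombinant CHO cells, human receptor subtype 1 or 2.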
Sequence of human orexin-2 receptor (O43614 whole entry): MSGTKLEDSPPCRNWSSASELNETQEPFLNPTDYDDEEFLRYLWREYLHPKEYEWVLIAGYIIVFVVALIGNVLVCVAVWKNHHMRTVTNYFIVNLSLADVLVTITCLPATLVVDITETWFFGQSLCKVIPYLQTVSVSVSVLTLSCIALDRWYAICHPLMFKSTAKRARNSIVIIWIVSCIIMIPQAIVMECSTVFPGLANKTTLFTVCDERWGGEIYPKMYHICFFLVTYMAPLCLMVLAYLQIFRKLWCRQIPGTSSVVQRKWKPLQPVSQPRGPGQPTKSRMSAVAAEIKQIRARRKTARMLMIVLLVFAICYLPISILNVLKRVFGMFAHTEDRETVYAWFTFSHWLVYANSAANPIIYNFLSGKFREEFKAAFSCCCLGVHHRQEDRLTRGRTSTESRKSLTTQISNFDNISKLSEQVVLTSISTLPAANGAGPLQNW
For orientation: A change in cytosolic calcium serves as a functional read-out for many receptors and channels.

The next experiment concerns the target human orexin-1 receptor (Homo sapiens (Human), UniProt O43613). The experiment is described as above. The experiment is classed as cell-based. To be noted: CHO cells expressing human orexin-1 receptor, orexin-A agonist, geometric mean, read-out: IC50 Ox1. In short, it runs like this:
as §1

Sequence of human orexin-1 receptor (O43613 whole entry): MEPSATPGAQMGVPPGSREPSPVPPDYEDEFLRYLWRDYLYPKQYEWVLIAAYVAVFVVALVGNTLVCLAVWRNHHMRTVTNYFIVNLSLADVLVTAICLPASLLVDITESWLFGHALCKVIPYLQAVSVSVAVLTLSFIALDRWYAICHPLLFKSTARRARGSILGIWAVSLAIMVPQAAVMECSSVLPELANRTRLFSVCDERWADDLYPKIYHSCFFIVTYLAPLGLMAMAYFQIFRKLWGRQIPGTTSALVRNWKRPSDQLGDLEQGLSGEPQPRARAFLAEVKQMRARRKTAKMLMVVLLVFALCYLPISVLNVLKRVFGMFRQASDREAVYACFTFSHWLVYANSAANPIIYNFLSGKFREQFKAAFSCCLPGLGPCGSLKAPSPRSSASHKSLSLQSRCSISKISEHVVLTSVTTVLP

For the molecule `CO[C@H]1CN(C(=O)c2nc(C)ccc2-n2cccn2)C(C)(c2nc3c(C)c(Cl)ccc3[nH]2)C1` (stereo partly shown) [Ex. 3.55], the figures for the IC50 on human orexin-2 receptor and on human orexin-1 receptor were 45 nM and 18 nM, respectively.
In the same order, the values of `CO[C@H]1CN(C(=O)c2nc(C)ccc2-n2nccn2)C(C)(c2nc3c(C)c(Cl)ccc3[nH]2)C1` (stereo partly shown) [Ex. 3.56] are 37 nM and 18 nM.
In the same order, the values of `Cc1ccc(-n2nccn2)c(C(=O)N2CC[C@H](C)[C@H]2c2nc3cc(C)ccc3[nH]2)c1` [Ex. 4.2] are 669 nM and 132 nM.
The matching figures for `Cc1ccc2[nH]c([C@@H]3[C@@H](C)CCN3C(=O)c3nc(C)sc3-c3cccc(Cl)c3)nc2c1` [Ex. 4.3]: 1350 nM and 8 nM.
Turning to `Cc1nc(C(=O)N2CC[C@H](C)[C@H]2c2nc3cccc(C)c3[nH]2)c(-c2ccccc2)s1` [Ex. 4.4], the IC50 was found to be 1170 nM on human orexin-2 receptor and 11 nM on human orexin-1 receptor.
As for `Cc1ccc2[nH]c([C@@H]3[C@@H](C)CCN3C(=O)c3nc(C)sc3-c3ccccc3)nc2c1` [Ex. 4.5], the IC50 on human orexin-2 receptor stood at 3190 nM; on human orexin-1 receptor, 29 nM.
In the same order, the values of `Cc1nc(C(=O)N2CC[C@H](C)[C@H]2c2nc3ccccc3[nH]2)c(-c2cccc(Cl)c2)s1` [Ex. 4.6] are 3890 nM and 29 nM.
The matching figures for `Cc1nc(C(=O)N2CC[C@H](C)[C@H]2c2nc3cccc(C)c3[nH]2)c(-c2cccc(Cl)c2)s1` [Ex. 4.7]: 603 nM and 2 nM.
With `Cc1nc(C(=O)N2CC[C@H](C)[C@H]2c2nc3cc(C#N)ccc3[nH]2)c(-c2cccc(Cl)c2)s1` [Ex. 4.8], the results for the IC50 on human orexin-2 receptor and at human orexin-1 receptor were 9930 nM and 68 nM, respectively.
The matching figures for `Cc1nc(C(=O)N2CC[C@H](C)[C@H]2c2nc3cc(C(F)(F)F)ccc3[nH]2)c(-c2cccc(Cl)c2)s1` [Ex. 4.9]: 2780 nM and 2 nM.
The matching figures for `Cc1nc(C(=O)N2CC[C@H](C)[C@H]2c2nc3cc(C)c(C)cc3[nH]2)c(-c2cccc(Cl)c2)s1` [Ex. 4.10]: 833 nM and 2 nM.
Consider `Cc1nc(C(=O)N2CC[C@H](C)[C@H]2c2nc3cc(Cl)ccc3[nH]2)c(-c2cccc(Cl)c2)s1` [Ex. 4.11], for which the figures for the IC50 at human orexin-2 receptor and on human orexin-1 receptor were 4060 nM and 10 nM, respectively.
The matching figures for `Cc1nc(C(=O)N2CC[C@H](C)[C@H]2c2nc3cc(F)c(F)cc3[nH]2)c(-c2cccc(Cl)c2)s1` [Ex. 4.12]: 4870 nM and 23 nM.
Turning to `COC(=O)c1cccc2nc([C@@H]3[C@@H](C)CCN3C(=O)c3nc(C)sc3-c3cccc(Cl)c3)[nH]c12` [Ex. 4.13], the IC50 at human orexin-2 receptor was 4910 nM; at human orexin-1 receptor, 26 nM.
As to `COc1cccc2[nH]c([C@@H]3[C@@H](C)CCN3C(=O)c3nc(C)sc3-c3cccc(Cl)c3)nc12` [Ex. 4.14], the IC50 at human orexin-2 receptor stood at 4030 nM; at human orexin-1 receptor it was 15 nM.
`Cc1nc(C(=O)N2CC[C@H](C)[C@H]2c2nc3cc(Cl)c(C)cc3[nH]2)c(-c2cccc(Cl)c2)s1` [Ex. 4.15]: the IC50 stood at 670 nM at human orexin-2 receptor and 2 nM at human orexin-1 receptor.
Take `Cc1cc(C)c2nc([C@@H]3[C@@H](C)CCN3C(=O)c3nc(C)sc3-c3cccc(Cl)c3)[nH]c2c1` [Ex. 4.16]: the IC50 at human orexin-2 receptor was found to be 250 nM; at human orexin-1 receptor, 1 nM.
For the molecule `Cc1nc(C(=O)N2CC[C@H](C)[C@H]2c2nc3c(CO)cccc3[nH]2)c(-c2cccc(Cl)c2)s1` [Ex. 4.17], the figures for the IC50 on human orexin-2 receptor and at human orexin-1 receptor were 1670 nM and 14 nM, respectively.
In the same order, the values of `Cc1nc(C(=O)N2CC[C@H](C)[C@H]2c2nc3c(F)cccc3[nH]2)c(-c2cccc(Cl)c2)s1` [Ex. 4.18] are 2930 nM and 43 nM.
The matching figures for `Cc1nc(C(=O)N2CC[C@H](C)[C@H]2c2nc3c(C(F)(F)F)cccc3[nH]2)c(-c2cccc(Cl)c2)s1` [Ex. 4.19]: 422 nM and 2 nM.
For the molecule `Cc1nc(C(=O)N2CC[C@H](C)[C@H]2c2nc3cc(F)ccc3[nH]2)c(-c2cccc(Cl)c2)s1` [Ex. 4.20], the IC50 on human orexin-2 receptor was found to be 2450 nM; on human orexin-1 receptor, 28 nM.
The matching figures for `Cc1nc(C(=O)N2CC[C@H](C)[C@H]2c2nc3c(C)c(Cl)ccc3[nH]2)c(-c2cccc(Cl)c2)s1` [Ex. 4.21]: 133 nM and 1 nM.
The matching figures for `Cc1nc(C(=O)N2CC[C@H](C)[C@H]2c2nc3cccc(Cl)c3[nH]2)c(-c2cccc(Cl)c2)s1` [Ex. 4.22]: 1080 nM and 6 nM.
The matching figures for `Cc1nc(C(=O)N2CC[C@H](C)[C@H]2c2nc3c(F)c(F)ccc3[nH]2)c(-c2cccc(Cl)c2)s1` [Ex. 4.23]: 1940 nM and 9 nM.
As to `Cc1nc(C(=O)N2CC[C@H](C)[C@H]2c2nc3c(C)c(C)ccc3[nH]2)c(-c2cccc(Cl)c2)s1` [Ex. 4.24], the IC50 at human orexin-2 receptor is 367 nM; on human orexin-1 receptor it was 2 nM.
In the same order, the values of `Cc1nc(C(=O)N2CC[C@H](C)[C@H]2c2nc3c(C(C)C)cccc3[nH]2)c(-c2cccc(Cl)c2)s1` [Ex. 4.25] are 441 nM and 4 nM.
The matching figures for `COc1ccc2nc([C@@H]3[C@@H](C)CCN3C(=O)c3nc(C)sc3-c3cccc(Cl)c3)[nH]c2c1` [Ex. 4.26]: 2280 nM and 17 nM.
In the same order, the values of `Cc1nc(C(=O)N2CC[C@H](C)[C@H]2c2nc3cc(CO)ccc3[nH]2)c(-c2cccc(Cl)c2)s1` [Ex. 4.27] are 5590 nM and 59 nM.
For `Cc1nc(C(=O)N2CC[C@H](C)[C@H]2c2nc3cc(Cl)cc(C)c3[nH]2)c(-c2cccc(Cl)c2)s1` [Ex. 4.28], the IC50 on human orexin-2 receptor amounted to 486 nM; on human orexin-1 receptor, 2 nM.
With `Cc1ccc(-n2nccn2)c(C(=O)N2CC[C@H](C)[C@H]2c2nc3cc(C(F)(F)F)ccc3[nH]2)c1` [Ex. 4.29], the IC50 on human orexin-2 receptor worked out at 353 nM; at human orexin-1 receptor it was 30 nM.
The matching figures for `Cc1ccc(-n2nccn2)c(C(=O)N2CC[C@H](C)[C@H]2c2nc3cc(C)c(C)cc3[nH]2)c1` [Ex. 4.30]: 155 nM and 12 nM.
In the same order, the values of `COc1cccc2[nH]c([C@@H]3[C@@H](C)CCN3C(=O)c3cc(C)ccc3-n3nccn3)nc12` [Ex. 4.31] are 774 nM and 77 nM.
With `Cc1ccc(-n2nccn2)c(C(=O)N2CC[C@H](C)[C@H]2c2nc3cc(Cl)c(C)cc3[nH]2)c1` [Ex. 4.32], the IC50 at human orexin-2 receptor came out at 156 nM; on human orexin-1 receptor, 7 nM.
The matching figures for `Cc1ccc(-n2nccn2)c(C(=O)N2CC[C@H](C)[C@H]2c2nc3c(C)cc(C)cc3[nH]2)c1` [Ex. 4.33]: 294 nM and 9 nM.
The matching figures for `Cc1ccc(-n2nccn2)c(C(=O)N2CC[C@H](C)[C@H]2c2nc3c(C(F)(F)F)cccc3[nH]2)c1` [Ex. 4.34]: 1880 nM and 37 nM.
The matching figures for `Cc1ccc(-n2nccn2)c(C(=O)N2CC[C@H](C)[C@H]2c2nc3c(C)c(Cl)ccc3[nH]2)c1` [Ex. 4.35]: 193 nM and 3 nM.
Take `Cc1ccc(-n2nccn2)c(C(=O)N2CC[C@H](C)[C@H]2c2nc3c(Cl)cccc3[nH]2)c1` [Ex. 4.36]: the half-inhibitory concentration (IC50) at human orexin-2 receptor stood at 2740 nM; at human orexin-1 receptor, 70 nM.
In the same order, the values of `Cc1ccc(-n2nccn2)c(C(=O)N2CC[C@H](C)[C@H]2c2nc3c(C)c(C)ccc3[nH]2)c1` [Ex. 4.37] are 988 nM and 24 nM.
The matching figures for `Cc1ccc(-n2nccn2)c(C(=O)N2CC[C@H](C)[C@H]2c2nc3c(C(C)C)cccc3[nH]2)c1` [Ex. 4.38]: 756 nM and 55 nM.
The matching figures for `Cc1ccc(-n2nccn2)c(C(=O)N2CC[C@H](C)[C@H]2c2nc3cc(Cl)cc(C)c3[nH]2)c1` [Ex. 4.39]: 315 nM and 14 nM.
With `COc1cc2nc([C@@H]3[C@@H](C)CCN3C(=O)c3cc(Cl)ccc3-n3nccn3)[nH]c2cc1OC` [Ex. 4.40], the IC50 at human orexin-2 receptor was determined as 28 nM; at human orexin-1 receptor, 21 nM.
For `COc1cc2nc([C@@H]3[C@@H](C)CCN3C(=O)c3cc(F)ccc3-n3nccn3)[nH]c2cc1OC` [Ex. 4.41], the IC50 on human orexin-2 receptor was determined as 248 nM; at human orexin-1 receptor it was 182 nM.
In the same order, the values of `COc1cc2nc([C@@H]3[C@@H](C)CCN3C(=O)c3c(F)cccc3-n3nccn3)[nH]c2cc1OC` [Ex. 4.42] are 1130 nM and 365 nM.
The matching figures for `COc1ccc(-n2nccn2)c(C(=O)N2CC[C@H](C)[C@H]2c2nc3cc(OC)c(OC)cc3[nH]2)c1` [Ex. 4.43]: 97 nM and 39 nM.
The matching figures for `COc1cc2nc([C@@H]3[C@@H](C)CCN3C(=O)c3c(-n4nccn4)ccc(C)c3F)[nH]c2cc1OC` [Ex. 4.44]: 246 nM and 38 nM.
As to `COc1cc2nc([C@@H]3[C@@H](C)CCN3C(=O)c3c(-n4nccn4)ccc(OC)c3F)[nH]c2cc1OC` [Ex. 4.45], the IC50 at human orexin-2 receptor turned out to be 5780 nM; at human orexin-1 receptor, 124 nM.
In the case of `COc1cc2nc([C@@H]3[C@@H](C)CCN3C(=O)c3ccc(C)cc3-n3nccn3)[nH]c2cc1OC` [Ex. 4.46], the results for the IC50 on human orexin-2 receptor and at human orexin-1 receptor were 51 nM and 14 nM, respectively.
For the molecule `COc1cc2nc([C@@H]3[C@@H](C)CCN3C(=O)c3cc(C(F)(F)F)ccc3-n3nccn3)[nH]c2cc1OC` [Ex. 4.47], the figures for the IC50 on human orexin-2 receptor and on human orexin-1 receptor were 281 nM and 176 nM, respectively.
The matching figures for `COc1cc2nc([C@@H]3[C@@H](C)CCN3C(=O)c3c(C)cccc3-n3nccn3)[nH]c2cc1OC` [Ex. 4.48]: 1320 nM and 391 nM.
The matching figures for `COc1cc2nc([C@@H]3[C@@H](C)CCN3C(=O)c3ccccc3-n3nccn3)[nH]c2cc1OC` [Ex. 4.49]: 533 nM and 221 nM.

By IC50 is commonly meant the concentration needed to halve the response being measured.
